Test results taken from US20240254087A1, “SELECTIVE, PARTIAL, AND ARRESTIN-BIASED 5-HT2A AGONISTS WITH UTILITY IN VARIOUS DISORDERS” (Saint Joseph's University, priority 2021, published 2024).
Where a name gives a salt, the structure may show the parent alone.

Key:
[1] = biological target: T1, 5-HT2A (Homo sapiens, UniProt P28223); assay: [3H]-ketanserin displacement, 5-HT2A membranes; format: binding; design: ES-313-M400UA (membranes); host or cells: CHO-K1; conditions: [3H]-ketanserin displacement (n = 2); read-out: 5-HT2A pKi Mean ± SEM (converted)
T1 sequence (P28223 whole entry): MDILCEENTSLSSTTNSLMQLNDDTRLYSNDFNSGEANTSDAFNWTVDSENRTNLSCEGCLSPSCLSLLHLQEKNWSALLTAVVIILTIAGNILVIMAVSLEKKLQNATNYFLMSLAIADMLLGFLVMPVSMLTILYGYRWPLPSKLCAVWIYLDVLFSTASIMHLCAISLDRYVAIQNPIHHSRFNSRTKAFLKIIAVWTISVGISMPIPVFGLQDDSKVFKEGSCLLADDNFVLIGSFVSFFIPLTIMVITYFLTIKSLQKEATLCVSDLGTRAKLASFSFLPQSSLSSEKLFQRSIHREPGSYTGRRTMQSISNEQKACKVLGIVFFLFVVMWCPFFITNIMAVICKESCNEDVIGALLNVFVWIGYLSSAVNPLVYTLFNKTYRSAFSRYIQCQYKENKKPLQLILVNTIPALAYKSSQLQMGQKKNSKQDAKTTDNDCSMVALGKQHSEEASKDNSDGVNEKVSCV

[2] = biological target: T1, 5-HT2A; assay: cell-based; design: expressed in transfected cells; host or cells: HEK293T, transient; conditions: read-out: 5-HT2A β-arrestin Emax (% 5-HT), BRET, mean ± SEM
[3] = biological target: T1, 5-HT2A; assay: cell-based; design: expressed in transfected cells; host or cells: HEK293T, transient; conditions: read-out: 5-HT2A Gq Emax (% 5-HT), BRET, mean ± SEM
[4] = biological target: T2, 5-HT2C (Homo sapiens, UniProt P28335); assay: Competitive radioligand binding (NIMH PDSP); design: expressed in transfected cells
T2 sequence (P28335 33-458): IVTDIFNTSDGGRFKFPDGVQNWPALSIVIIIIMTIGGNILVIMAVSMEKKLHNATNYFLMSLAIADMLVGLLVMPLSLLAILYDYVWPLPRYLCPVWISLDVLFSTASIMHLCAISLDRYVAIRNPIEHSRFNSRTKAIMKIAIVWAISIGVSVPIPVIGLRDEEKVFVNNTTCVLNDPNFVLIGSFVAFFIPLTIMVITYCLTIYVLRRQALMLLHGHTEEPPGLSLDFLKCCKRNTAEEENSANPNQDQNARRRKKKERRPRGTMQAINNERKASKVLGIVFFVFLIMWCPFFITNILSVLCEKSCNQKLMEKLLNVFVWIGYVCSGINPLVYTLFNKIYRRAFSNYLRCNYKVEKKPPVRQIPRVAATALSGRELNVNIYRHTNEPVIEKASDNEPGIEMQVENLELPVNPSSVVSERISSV
Procedure: (§1) Method 1: Competitive binding experiments were performed by the National Institute of Mental Health Psychoactive Drug Screening Program (NIMH PDSP) using described methods or 5-HT2A experiments performed using [3H]-ketanserin displacement in human 5-HT2A expressing membranes. Target compounds were dissolved in DMSO and an initial screen performed to assess displacement of the radioligand from target receptors at a concentration of 10,000 nM. […] For the Ki experiments, compounds were always tested in triplicate on separate plates. Each plate also contained a known ligand for the receptor as a positive control.

[5] = biological target: T3, 5-HT2B (Homo sapiens, UniProt P41595); assay: Competitive radioligand binding (NIMH PDSP); design: expressed in transfected cells
T3 sequence (P41595 whole entry): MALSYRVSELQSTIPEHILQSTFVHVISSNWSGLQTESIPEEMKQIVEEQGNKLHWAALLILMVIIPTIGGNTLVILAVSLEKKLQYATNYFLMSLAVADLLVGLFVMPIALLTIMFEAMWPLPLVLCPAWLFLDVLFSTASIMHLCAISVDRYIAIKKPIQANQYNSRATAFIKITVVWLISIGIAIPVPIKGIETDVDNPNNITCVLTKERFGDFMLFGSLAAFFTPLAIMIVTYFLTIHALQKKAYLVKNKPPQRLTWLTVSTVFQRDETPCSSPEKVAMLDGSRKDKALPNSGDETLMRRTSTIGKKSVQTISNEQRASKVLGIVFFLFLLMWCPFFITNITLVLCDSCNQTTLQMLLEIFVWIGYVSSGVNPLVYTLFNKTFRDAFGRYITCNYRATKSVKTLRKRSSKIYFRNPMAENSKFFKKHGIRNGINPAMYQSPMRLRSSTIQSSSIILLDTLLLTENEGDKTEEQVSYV
Procedure: as §1

[6] = biological target: T2, 5-HT2C; assay: Ca2+ flux assay, 5-HT2C; format: cell-based; design: expressed in transfected cells; conditions: for Emax: read-out: 5-HT2C Emax % 5-HT
Procedure: (§2) Cell lines were maintained in DMEM containing 10% FBS, 10 μg/mL Blasticidin (Invivogen), and 100 μg/mL Hygromycin B (GoldBio). At least 20-24 hours before the assay, receptor expression was induced with tetracycline ([…]) and cells were seeded into 384-well poly-L-lysine-coated black plates at a density of 7,500 cells/well in DMEM containing 1% dialyzed FBS. On the day of the assay, the cells were incubated for 1 h at 37° C. with Fluo-4 Direct dye (Invitrogen, 20 μl/well) reconstituted in drug buffer (20 mM HEPES-buffered HBSS, pH 7.4) containing 2.5 mM probenecid. Drug dilutions were prepared at 5X final concentration in McCorvy buffer (20 mM HEPES-buffered HBSS, 0).1% BSA, 0.01% ascorbic acid pH 7.4). After dye load, cells were allowed to equilibrate to room temperature for 15 minutes, and then placed in a FLIPR^TETRA fluorescence imaging plate reader (Molecular Devices). Fluorescence for the FLIPR^TETRA were programmed to read baseline fluorescence for 10 s (1 read/s), and afterward 5 μl of drug per well was added and read for a total of 5-10 min (1 read/s). Fluorescence in each well was normalized to the average of the first 10 reads for baseline fluorescence, and then either maximum-fold peak increase over basal or area under the curve (AUC) was calculated. […] Data was plotted and non-linear regression was performed using “log(agonist) vs. response” in Graphpad Prism 8 to yield Emax and EC50 parameter estimates.

[7] = biological target: 5-HT1e (Homo sapiens, UniProt P28566); assay: Competitive radioligand binding (NIMH PDSP)
5-HT1e, sequence (P28566 whole entry, species assumed): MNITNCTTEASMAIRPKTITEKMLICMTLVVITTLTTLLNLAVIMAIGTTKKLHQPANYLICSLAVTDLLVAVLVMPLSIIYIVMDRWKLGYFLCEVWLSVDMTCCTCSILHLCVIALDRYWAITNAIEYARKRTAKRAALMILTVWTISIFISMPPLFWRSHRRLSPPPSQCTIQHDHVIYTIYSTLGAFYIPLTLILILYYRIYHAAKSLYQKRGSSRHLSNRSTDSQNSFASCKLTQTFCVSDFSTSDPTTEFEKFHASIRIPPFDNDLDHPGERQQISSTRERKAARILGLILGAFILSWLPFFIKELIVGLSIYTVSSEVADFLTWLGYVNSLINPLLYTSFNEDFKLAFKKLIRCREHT
Procedure: as §1

[8] = biological target: T4, 5-HT1A (Homo sapiens, UniProt P08908); assay: Competitive radioligand binding (NIMH PDSP)
T4 sequence (P08908 1-422): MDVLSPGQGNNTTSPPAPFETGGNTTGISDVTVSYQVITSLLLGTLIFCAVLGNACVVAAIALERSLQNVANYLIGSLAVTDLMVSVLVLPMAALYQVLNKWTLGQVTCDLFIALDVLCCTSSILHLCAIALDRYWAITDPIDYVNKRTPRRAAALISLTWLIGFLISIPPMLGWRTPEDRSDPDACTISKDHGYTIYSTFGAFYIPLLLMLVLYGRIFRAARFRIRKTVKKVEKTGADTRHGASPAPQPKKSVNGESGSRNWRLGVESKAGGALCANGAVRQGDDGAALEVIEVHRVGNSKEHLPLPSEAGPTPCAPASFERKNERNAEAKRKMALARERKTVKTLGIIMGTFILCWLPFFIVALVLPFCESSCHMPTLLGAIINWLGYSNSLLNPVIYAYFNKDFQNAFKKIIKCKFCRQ
Procedure: as §1

[9] = biological target: 5-HT1D (Homo sapiens, UniProt P28221); assay: Competitive radioligand binding (NIMH PDSP)
5-HT1D, sequence (P28221 whole entry, species assumed): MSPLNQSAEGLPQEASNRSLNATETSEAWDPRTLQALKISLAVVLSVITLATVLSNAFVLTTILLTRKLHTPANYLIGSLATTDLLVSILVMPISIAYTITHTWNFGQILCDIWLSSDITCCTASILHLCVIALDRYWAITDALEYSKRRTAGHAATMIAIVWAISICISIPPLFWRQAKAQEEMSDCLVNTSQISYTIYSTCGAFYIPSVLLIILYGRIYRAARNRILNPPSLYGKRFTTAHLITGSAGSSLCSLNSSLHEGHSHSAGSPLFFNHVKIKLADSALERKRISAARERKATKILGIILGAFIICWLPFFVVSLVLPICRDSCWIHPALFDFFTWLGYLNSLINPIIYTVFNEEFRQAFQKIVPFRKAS
Procedure: as §1

[10] = biological target: T1, 5-HT2A; assay: Competitive radioligand binding (NIMH PDSP)
Procedure: as §1

[11] = biological target: T5, 5-HT3 (Homo sapiens, UniProt P46098); assay: Competitive radioligand binding (NIMH PDSP)
T5 sequence (P46098 24-478): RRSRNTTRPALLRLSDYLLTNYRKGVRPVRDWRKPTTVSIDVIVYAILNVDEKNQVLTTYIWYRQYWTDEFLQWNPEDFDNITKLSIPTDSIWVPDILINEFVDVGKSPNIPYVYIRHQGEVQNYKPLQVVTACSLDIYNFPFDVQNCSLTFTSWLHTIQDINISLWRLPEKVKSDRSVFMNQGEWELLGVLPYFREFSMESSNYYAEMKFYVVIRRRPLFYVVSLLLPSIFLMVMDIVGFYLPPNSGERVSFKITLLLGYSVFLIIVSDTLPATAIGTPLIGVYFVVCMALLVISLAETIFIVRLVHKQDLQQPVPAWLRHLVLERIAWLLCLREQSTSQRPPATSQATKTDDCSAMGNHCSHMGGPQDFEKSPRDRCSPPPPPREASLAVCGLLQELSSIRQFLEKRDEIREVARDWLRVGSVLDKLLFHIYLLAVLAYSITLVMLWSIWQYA
Procedure: as §1

[12] = biological target: 5-HT1B (Homo sapiens, UniProt P28222); assay: Competitive radioligand binding (NIMH PDSP)
5-HT1B, sequence (P28222 whole entry, species assumed): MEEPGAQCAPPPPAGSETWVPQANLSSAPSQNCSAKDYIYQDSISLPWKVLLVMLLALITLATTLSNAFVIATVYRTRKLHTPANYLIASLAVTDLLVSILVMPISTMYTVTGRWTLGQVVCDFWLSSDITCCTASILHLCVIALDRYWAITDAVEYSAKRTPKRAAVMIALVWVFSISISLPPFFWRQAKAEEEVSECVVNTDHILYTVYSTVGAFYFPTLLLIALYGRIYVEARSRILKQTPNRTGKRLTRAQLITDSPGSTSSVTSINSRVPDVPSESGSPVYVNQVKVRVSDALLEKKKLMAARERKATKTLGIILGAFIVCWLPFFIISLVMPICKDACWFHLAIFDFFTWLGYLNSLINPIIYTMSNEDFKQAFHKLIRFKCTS
Procedure: as §1

[13] = test system: 5-HT2A; assay: Ca2+ flux assay, 5-HT2A; format: cell-based, human; conditions: Gq/11 Ca2+ mobilization; higher number = skewed towards 5-HT2A
Procedure: as §2

[14] = biological target: T1, 5-HT2A; assay: Ca2+ flux assay, 5-HT2A; format: cell-based; design: expressed in transfected cells; conditions: for EC50: 5-HT2A EC50, nM, Ca2+ flux; for Emax: read-out: 5-HT2A Emax % 5-HT, Ca2+ flux
Procedure: as §2

[15] = biological target: T3, 5-HT2B; assay: Ca2+ flux assay, 5-HT2B; format: cell-based; design: expressed in transfected cells; conditions: Ca2+ flux; for Emax: read-out: 5-HT2B Emax % 5-HT
Procedure: as §2

## COc1cc(OC)c(OC)cc1CCNCc1cccc(OCc2ccccc2)c1 [(78)]
[1]
  Ki: 251 nM
[2]
  Emax: 50.3 ± 4.1%
[3]
  Emax: 32.8 ± 4.5%

## COc1cc([N+](=O)[O-])c(OC)cc1CCNCc1cccc(F)c1 [25N-NB-3-F (24), [2-(2,5-dimethoxy-4-nitrophenyl)ethyl][(3-fluorophenyl)methyl]amine]
[4]
  Ki: 224 nM
[5]
  Ki: 42.7 nM
[6]; 5-HT2C EC50, nM
  EC50: 149 nM
[6]
  Emax: 54 ± 1%
[7]
  Ki: > 10000 nM
[8]
  Ki: > 10000 nM
[9]
  Ki: > 10000 nM
[10]
  Ki: 3.02 nM
[11]
  Ki: > 10000 nM
[12]
  Ki: > 10000 nM
[13]
  5-HT2A/5-HT2c Selectivity Factor ΔLog(Emax/EC50): 154.4
[14]
  EC50: 2.25 nM
  Emax: 85 ± 2%
[15]
  5-HT2B EC50, nM: No activity
  Emax: < 10%

## COc1cc([N+](=O)[O-])c(OC)cc1CCNCc1ccc(C)cc1 [25N-NB-4-Me (23), [2-(2,5-dimethoxy-4-nitrophenyl)ethyl] [(4-methylphenyl)methyl]amine]
[4]
  Ki: 631 nM
[5]
  Ki: 52.5 nM
[6]; 5-HT2C EC50, nM
  EC50: 844 nM
[6]
  Emax: 14 ± 1%
[7]
  Ki: > 10000 nM
[8]
  Ki: 2630 nM
[9]
  Ki: > 10000 nM
[10]
  Ki: 5.5 nM
[11]
  Ki: > 10000 nM
[12]
  Ki: > 10000 nM
[13]
  5-HT2A/5-HT2c Selectivity Factor ΔLog(Emax/EC50): 66.1
[14]
  EC50: 38.3 nM
  Emax: 42 ± 3%
[15]
  5-HT2B EC50, nM: No activity
  Emax: < 10%

## COc1cc(OC)c(OC)cc1CCNCc1cccc2ccsc12 [(73), N-(benzo[b]thiophen-7-ylmethyl)-2-(2,4,5-trimethoxyphenyl)-ethan-1-amine]
[1]
  Ki: 29.5 nM

## COc1cc([N+](=O)[O-])c(OC)cc1CCNCc1ccc(F)cc1 [25N-NB-4-F (25), [2-(2,5-dimethoxy-4-nitrophenyl)ethyl][(4-fluorophenyl)methyl]amine]
[4]
  Ki: 813 nM
[5]
  Ki: 85.1 nM
[6]; 5-HT2C EC50, nM
  EC50: 413 nM
[6]
  Emax: 21 ± 2%
[7]
  Ki: > 10000 nM
[8]
  Ki: > 10000 nM
[9]
  Ki: > 10000 nM
[10]
  Ki: 6.17 nM
[11]
  Ki: > 10000 nM
[12]
  Ki: > 10000 nM
[13]
  5-HT2A/5-HT2c Selectivity Factor ΔLog(Emax/EC50): 43.3
[14]
  EC50: 19.7 nM
  Emax: 48 ± 2%
[15]
  5-HT2B EC50, nM: No activity
  Emax: < 10%

## COc1cc([N+](=O)[O-])c(OC)cc1CCNCc1ccccc1-c1ccccc1 (as salt: HCl) [25N-NBPh (17), ({[1,1′-biphenyl]-2-yl}methyl)[2-(2,5-dimethoxy-4-nitrophenyl)ethyl]amine]
other
  melting point: 181.5 to 182.5 °C

## COc1cc([N+](=O)[O-])c(OC)cc1CCNCc1ccc(F)cc1 (as salt: HCl) [25N-NB-4-F (25), [2-(2,5-dimethoxy-4-nitrophenyl)ethyl][(4-fluorophenyl)methyl]amine]
other
  melting point: 180 to 181 °C

## COc1cc([N+](=O)[O-])c(OC)cc1CCNCc1cccc2c1OC(F)(F)O2 [25N-NBMDF2 (13), [(2,2-difluoro-2H-1,3-benzodioxol-4-yl)methyl][2-(2,5-dimethoxy-4-nitrophenyl)ethyl]amine]
[4]
  Ki: 214 nM
[5]
  Ki: 46.8 nM
[6]; 5-HT2C (pEC50 ± SEM)
  EC50: 437 nM
[6]; 5-HT2C EC50, nM
  EC50: 431 nM
[6]
  Emax: 49 ± 4%
[7]
  Ki: > 10000 nM
[8]
  Ki: 1000 nM
[9]
  Ki: > 10000 nM
[10]
  Ki: 1.2 nM
[11]
  Ki: > 10000 nM
[12]
  Ki: > 10000 nM
[13]
  5-HT2A/5-HT2c Selectivity Factor ΔLog(Emax/EC50): 252.5
[14]
  EC50: 3.02 nM
  Emax: 86 ± 2%
[15]
  5-HT2B EC50, nM: No activity
  Emax: < 10%

## COc1cc([N+](=O)[O-])c(OC)cc1CCNCc1ccccc1C(F)(F)F (as salt: HCl) [25N-NBCF3 (14), [2-(2,5-dimethoxy-4-nitrophenyl)ethyl]({[2-(trifluoromethyl)phenyl]methyl}) amine]
other
  melting point: 156.7 to 159.1 °C

## COc1cc([N+](=O)[O-])c(OC)cc1CCNCc1cccc2ccccc12 (as salt: HCl) [25N-N-1-Nap (16), [2-(2,5-dimethoxy-4-nitrophenyl)ethyl][(naphthalen-1-yl)methyl]amine]
other
  melting point: 191.8 to 192.3 °C

## COc1cc([N+](=O)[O-])c(OC)cc1CCNCc1cccc2c1OC(F)(F)O2 (as salt: HCl) [25N-NBMDF2 (13), [(2,2-difluoro-2H-1,3-benzodioxol-4-yl)methyl][2-(2,5-dimethoxy-4-nitrophenyl)ethyl]amine]
other
  melting point: 208.4 to 209.8 °C

## COc1cc([N+](=O)[O-])c(OC)cc1CCNCc1cccc(O)c1 (as salt: HCl) [25N-NB-3-OH (21), 3-({[2-(2,5-dimethoxy-4-nitrophenyl)ethyl]amino}methyl)phenol]
other
  melting point: 194 to 195.5 °C

## COc1cc(OC)c(OC)cc1CCNC(C)c1cccc2ccccc12 (stereo not shown) (as salt: HCl)
other
  melting point: 195.2 to 196.4 °C

## COc1cc([N+](=O)[O-])c(OC)cc1CCNCc1ccccc1 (as salt: HCl) [25N-NB (2), Benzyl[2-(2,5-dimethoxy-4-nitrophenyl)ethyl]amine]
other
  melting point: 220 to 221 °C
